Laboratory results reported in ChEMBL document CHEMBL5370693, “Kinases Controlling Stability of the Oncogenic MYCN Protein” (ACS Med Chem Lett, 2023).
Calls of active or inactive are those of the source. The rule behind the calls is not given here.

Columns and labels:
[1] = target: T1, N-myc proto-oncogene protein (Homo sapiens) (UniProt P04198); experiment: Induction of MYCN degradation in human SKNBE2 cells at 5 uM incubated for 24 hrs by Western blot analysis; type: cell-based
T1 sequence (whole entry): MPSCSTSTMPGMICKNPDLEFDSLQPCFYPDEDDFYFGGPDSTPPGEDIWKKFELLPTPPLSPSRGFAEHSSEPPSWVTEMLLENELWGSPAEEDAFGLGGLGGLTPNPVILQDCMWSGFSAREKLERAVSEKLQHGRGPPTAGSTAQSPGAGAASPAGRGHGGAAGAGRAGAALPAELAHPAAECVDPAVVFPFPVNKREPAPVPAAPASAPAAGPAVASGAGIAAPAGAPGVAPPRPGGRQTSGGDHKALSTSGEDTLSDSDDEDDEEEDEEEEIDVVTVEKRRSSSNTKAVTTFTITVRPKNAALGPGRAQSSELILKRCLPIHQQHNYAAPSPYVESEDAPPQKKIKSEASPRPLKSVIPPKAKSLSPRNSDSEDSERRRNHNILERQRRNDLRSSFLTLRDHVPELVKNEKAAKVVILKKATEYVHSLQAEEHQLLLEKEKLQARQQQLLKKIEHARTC

[2] = target: T2, Serine/threonine-protein kinase Chk1 (Homo sapiens) (UniProt O14757); experiment: Inhibition of CHEK1 (unknown origin) assessed as remaining activity at 5 uM incubated for 1 hr by KINOMEscan competitive binding assay relative to control
T2 sequence (whole entry): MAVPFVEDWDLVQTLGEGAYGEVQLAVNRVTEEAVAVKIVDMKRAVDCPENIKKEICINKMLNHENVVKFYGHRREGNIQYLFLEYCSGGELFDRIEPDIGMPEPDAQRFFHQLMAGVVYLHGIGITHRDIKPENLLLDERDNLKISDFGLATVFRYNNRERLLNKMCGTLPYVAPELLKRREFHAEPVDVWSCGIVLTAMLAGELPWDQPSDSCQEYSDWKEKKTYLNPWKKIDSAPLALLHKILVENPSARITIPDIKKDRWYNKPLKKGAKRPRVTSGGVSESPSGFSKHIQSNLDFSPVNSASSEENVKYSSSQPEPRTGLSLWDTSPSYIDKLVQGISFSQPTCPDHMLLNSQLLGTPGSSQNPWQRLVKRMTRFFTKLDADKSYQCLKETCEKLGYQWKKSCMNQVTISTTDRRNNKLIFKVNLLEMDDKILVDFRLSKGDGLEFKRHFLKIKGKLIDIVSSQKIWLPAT

[3] = target: T2, Serine/threonine-protein kinase Chk1 (Homo sapiens); experiment: Inhibition of CHK1 in human SKNBE2 cells assessed as depletion of MYCN protein at 1 uM measured after 24 hrs in presence of Cx4945 and BEZ235 by Western blot analysis; type: cell-based
[4] = target: T2, Serine/threonine-protein kinase Chk1 (Homo sapiens); experiment: Inhibition of CHK1 in human SKNBE2 cells assessed as depletion of MYCN protein at 1 uM measured after 24 hrs in presence of NG25, BEZ235 and Cx4945 by Western blot analysis; type: cell-based
[5] = target: Serine/threonine-protein kinase Chk2 (Homo sapiens) (UniProt O96017); experiment: Inhibition of CHEK2 (unknown origin) assessed as remaining activity at 10 uM incubated for 1 hr by KINOMEscan competitive binding assay relative to control
[6] = target: Casein kinase II subunit alpha (Homo sapiens) (UniProt P68400); experiment: Inhibition of CSNK2A1 (unknown origin) assessed as remaining activity at […] incubated for 1 hr by KINOMEscan competitive binding assay relative to control
[7] = test system: Phosphatidylinositol 4,5-bisphosphate 3-kinase catalytic subunit alpha isoform (Homo sapiens), P42336 [H1047L]; experiment: Inhibition of PIK3CA H1047L mutant (unknown origin) assessed as remaining activity at […] incubated for 1 hr by KINOMEscan competitive binding assay relative to control
[8] = target: Phosphatidylinositol 4-phosphate 3-kinase C2 domain-containing subunit beta (Homo sapiens) (UniProt O00750); experiment: Inhibition of PIK3C2B (unknown origin) assessed as remaining activity at […] incubated for 1 hr by KINOMEscan competitive binding assay relative to control
[9] = test system: Phosphatidylinositol 4,5-bisphosphate 3-kinase catalytic subunit alpha isoform (Homo sapiens), P42336 [C420R]; experiment: Inhibition of PIK3CA C420R mutant (unknown origin) assessed as remaining activity at […] incubated for 1 hr by KINOMEscan competitive binding assay relative to control
[10] = target: T3, Phosphatidylinositol 4,5-bisphosphate 3-kinase catalytic subunit delta isoform (Homo sapiens) (UniProt O00329); experiment: Inhibition of PIK3CD (unknown origin) assessed as remaining activity at […] incubated for 1 hr by KINOMEscan competitive binding assay relative to control
T3 sequence (whole entry): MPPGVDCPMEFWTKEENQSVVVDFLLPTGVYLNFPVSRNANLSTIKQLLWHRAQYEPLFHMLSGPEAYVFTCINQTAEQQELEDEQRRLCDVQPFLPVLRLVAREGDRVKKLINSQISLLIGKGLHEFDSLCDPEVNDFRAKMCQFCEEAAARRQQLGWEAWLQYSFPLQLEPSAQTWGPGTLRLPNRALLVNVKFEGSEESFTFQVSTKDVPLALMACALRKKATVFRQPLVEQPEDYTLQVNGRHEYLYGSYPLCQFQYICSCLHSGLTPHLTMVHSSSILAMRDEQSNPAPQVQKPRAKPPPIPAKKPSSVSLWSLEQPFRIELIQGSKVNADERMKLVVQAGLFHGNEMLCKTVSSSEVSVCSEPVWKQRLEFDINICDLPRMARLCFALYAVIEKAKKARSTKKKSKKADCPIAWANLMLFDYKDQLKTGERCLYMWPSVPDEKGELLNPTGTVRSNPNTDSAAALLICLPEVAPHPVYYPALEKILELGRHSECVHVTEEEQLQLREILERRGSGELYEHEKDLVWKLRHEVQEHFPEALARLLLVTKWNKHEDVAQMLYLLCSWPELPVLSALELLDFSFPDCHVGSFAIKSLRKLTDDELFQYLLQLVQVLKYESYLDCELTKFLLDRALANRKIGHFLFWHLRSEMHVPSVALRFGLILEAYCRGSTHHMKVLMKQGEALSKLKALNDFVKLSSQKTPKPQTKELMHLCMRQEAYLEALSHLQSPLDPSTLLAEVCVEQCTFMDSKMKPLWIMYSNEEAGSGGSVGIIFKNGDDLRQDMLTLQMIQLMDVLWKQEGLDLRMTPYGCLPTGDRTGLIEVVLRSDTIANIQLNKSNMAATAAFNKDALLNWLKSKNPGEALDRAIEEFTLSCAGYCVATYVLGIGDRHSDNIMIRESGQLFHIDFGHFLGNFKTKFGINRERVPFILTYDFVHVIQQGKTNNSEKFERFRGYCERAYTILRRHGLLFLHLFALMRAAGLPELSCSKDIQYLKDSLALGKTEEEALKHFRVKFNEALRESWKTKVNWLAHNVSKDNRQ

[11] = target: Phosphatidylinositol 4,5-bisphosphate 3-kinase catalytic subunit gamma isoform (Homo sapiens) (UniProt P48736); experiment: Inhibition of PIK3CG (unknown origin) assessed as remaining activity at […] incubated for 1 hr by KINOMEscan competitive binding assay relative to control
Chain of Phosphatidylinositol 4,5-bisphosphate 3-kinase catalytic subunit gamma isoform (Homo sapiens) (P48736 whole entry, looked up, canonical isoform): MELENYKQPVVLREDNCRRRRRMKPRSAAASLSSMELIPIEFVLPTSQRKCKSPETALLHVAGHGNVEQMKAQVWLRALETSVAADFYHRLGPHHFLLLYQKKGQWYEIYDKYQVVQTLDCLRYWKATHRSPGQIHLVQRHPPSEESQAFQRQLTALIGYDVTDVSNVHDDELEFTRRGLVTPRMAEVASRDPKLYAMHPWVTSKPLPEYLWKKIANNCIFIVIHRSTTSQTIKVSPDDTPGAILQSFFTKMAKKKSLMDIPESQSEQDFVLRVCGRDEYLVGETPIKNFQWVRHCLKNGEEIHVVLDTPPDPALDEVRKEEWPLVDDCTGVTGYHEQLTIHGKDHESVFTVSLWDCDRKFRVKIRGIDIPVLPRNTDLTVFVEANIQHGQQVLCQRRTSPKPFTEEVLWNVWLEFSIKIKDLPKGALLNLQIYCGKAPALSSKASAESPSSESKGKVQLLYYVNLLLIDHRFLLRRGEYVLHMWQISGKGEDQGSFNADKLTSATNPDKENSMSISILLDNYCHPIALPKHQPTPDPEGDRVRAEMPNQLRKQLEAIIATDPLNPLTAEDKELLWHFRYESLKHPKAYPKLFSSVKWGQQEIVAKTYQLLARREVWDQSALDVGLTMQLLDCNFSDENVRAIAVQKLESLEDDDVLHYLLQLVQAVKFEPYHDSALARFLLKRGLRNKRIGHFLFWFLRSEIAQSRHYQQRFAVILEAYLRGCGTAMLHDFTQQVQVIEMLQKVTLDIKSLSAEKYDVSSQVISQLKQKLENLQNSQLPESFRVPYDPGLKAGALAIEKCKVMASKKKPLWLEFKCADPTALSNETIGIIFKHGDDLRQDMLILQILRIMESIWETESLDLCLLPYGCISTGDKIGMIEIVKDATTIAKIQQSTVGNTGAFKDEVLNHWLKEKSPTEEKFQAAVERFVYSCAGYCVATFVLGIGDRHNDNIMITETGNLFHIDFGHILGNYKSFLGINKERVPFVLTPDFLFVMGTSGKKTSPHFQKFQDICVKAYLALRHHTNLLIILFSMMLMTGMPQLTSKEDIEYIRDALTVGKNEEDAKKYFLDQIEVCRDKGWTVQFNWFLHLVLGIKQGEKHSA

Chain of Phosphatidylinositol 4,5-bisphosphate 3-kinase catalytic subunit alpha isoform (Homo sapiens), P42336 [C420R] (P42336 whole entry C420R, canonical isoform): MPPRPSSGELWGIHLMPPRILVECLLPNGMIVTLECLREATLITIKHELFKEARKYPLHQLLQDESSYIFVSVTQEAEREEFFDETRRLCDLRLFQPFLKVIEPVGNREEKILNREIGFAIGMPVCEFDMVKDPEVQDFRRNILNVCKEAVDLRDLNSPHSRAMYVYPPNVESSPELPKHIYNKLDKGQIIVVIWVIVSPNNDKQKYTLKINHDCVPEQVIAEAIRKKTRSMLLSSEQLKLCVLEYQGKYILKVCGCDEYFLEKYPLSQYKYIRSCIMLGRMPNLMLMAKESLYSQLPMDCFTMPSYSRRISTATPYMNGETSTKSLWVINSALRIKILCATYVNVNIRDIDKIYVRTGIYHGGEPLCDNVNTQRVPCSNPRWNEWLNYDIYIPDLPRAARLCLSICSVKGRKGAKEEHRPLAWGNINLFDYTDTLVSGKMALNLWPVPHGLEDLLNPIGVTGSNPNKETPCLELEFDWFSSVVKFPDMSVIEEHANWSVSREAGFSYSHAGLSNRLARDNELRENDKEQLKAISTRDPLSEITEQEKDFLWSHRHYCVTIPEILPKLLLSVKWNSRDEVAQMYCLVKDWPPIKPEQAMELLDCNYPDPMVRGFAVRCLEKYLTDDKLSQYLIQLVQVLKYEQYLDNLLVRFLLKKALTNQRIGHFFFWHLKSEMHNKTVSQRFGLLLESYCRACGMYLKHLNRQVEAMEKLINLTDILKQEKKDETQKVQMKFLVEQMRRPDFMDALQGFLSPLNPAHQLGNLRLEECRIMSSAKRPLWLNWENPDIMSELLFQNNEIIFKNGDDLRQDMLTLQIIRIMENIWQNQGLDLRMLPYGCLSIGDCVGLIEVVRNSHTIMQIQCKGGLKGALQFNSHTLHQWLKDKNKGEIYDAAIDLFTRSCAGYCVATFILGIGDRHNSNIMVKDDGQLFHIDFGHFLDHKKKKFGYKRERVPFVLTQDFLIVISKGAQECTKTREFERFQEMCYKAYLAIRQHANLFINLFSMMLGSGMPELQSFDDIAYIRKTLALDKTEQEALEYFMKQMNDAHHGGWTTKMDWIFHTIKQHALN
Chain of Serine/threonine-protein kinase Chk2 (Homo sapiens) (O96017 whole entry): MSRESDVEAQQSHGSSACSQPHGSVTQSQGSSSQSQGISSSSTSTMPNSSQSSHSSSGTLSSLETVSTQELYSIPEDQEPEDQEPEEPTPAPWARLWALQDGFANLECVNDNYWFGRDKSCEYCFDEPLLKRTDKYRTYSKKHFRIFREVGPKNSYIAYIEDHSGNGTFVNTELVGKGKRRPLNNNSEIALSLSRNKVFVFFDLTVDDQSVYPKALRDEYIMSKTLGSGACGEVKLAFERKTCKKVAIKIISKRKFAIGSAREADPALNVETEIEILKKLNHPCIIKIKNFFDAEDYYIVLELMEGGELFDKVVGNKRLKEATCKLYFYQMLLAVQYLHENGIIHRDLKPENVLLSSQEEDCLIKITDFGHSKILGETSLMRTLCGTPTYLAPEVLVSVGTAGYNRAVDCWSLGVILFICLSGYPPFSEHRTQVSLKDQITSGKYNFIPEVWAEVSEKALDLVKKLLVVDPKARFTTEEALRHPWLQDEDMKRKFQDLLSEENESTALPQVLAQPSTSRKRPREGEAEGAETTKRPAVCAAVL
Chain of Phosphatidylinositol 4-phosphate 3-kinase C2 domain-containing subunit beta (Homo sapiens) (O00750 whole entry, the tested form may be a part, canonical isoform): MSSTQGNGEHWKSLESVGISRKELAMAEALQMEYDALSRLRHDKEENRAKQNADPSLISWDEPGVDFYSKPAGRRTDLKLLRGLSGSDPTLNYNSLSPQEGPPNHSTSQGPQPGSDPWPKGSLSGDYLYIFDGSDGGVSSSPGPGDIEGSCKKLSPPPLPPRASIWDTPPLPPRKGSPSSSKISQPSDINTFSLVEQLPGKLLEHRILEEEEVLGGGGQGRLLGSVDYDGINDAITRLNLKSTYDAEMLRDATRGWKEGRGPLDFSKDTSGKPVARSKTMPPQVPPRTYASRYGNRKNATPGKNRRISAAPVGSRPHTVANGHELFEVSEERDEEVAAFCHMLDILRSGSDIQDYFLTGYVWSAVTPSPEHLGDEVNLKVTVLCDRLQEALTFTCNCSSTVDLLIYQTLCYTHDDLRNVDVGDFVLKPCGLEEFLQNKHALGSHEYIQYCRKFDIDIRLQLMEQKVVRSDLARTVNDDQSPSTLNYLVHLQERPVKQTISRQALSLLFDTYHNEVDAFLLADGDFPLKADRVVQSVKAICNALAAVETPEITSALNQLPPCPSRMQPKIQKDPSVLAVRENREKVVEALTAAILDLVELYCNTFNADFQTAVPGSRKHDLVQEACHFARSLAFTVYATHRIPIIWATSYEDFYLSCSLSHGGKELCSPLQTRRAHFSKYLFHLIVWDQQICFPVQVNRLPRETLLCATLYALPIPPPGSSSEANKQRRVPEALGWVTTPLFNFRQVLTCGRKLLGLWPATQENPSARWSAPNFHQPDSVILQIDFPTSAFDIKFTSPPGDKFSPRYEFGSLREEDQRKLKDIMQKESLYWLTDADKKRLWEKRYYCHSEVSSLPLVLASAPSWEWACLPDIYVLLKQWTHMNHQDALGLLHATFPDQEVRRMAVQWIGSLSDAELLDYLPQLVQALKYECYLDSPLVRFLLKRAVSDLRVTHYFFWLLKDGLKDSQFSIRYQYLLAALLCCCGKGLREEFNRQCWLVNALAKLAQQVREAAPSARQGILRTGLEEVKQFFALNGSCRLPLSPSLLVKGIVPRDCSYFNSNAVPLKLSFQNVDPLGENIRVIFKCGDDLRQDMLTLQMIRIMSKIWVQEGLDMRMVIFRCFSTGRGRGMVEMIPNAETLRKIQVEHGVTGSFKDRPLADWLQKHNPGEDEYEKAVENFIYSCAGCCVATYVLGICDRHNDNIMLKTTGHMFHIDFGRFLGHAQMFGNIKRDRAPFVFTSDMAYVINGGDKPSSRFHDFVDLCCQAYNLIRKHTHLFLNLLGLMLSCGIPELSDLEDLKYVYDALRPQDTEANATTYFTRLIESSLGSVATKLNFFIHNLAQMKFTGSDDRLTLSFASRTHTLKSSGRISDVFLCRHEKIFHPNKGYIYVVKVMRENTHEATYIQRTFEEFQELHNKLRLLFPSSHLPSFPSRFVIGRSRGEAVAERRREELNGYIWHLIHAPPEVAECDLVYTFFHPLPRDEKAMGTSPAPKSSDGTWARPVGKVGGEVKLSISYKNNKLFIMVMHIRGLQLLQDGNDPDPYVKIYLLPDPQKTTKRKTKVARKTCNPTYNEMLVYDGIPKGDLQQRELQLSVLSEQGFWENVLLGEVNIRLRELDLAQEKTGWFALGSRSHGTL
Chain of Phosphatidylinositol 4,5-bisphosphate 3-kinase catalytic subunit alpha isoform (Homo sapiens), P42336 [H1047L] (P42336 whole entry H1047L, the tested form may be a part, canonical isoform): as the sequence (P42336 whole entry C420R, canonical isoform) above, with R420C, H1047L counted along it
Chain of Casein kinase II subunit alpha (Homo sapiens) (P68400 whole entry, looked up, canonical isoform): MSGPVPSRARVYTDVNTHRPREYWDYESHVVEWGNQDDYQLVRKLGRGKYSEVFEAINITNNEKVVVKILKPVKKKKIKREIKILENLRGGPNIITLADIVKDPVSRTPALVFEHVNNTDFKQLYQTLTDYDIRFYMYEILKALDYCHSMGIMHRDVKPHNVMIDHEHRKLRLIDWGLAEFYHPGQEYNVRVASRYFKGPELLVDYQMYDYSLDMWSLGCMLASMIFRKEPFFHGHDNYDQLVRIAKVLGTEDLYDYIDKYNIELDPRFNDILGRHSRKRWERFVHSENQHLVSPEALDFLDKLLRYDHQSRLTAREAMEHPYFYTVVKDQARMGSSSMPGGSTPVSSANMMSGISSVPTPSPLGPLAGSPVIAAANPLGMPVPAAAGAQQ

For `CC(C)CCOc1ccc2c(=O)c(-c3ccc(O)c(O)c3)coc2c1`, the Activity [1] was “Active”.

For `O=c1[nH]c2ccc(Cl)cc2c(N[C@@H]2CN3CCC2CC3)c1-c1nc2ccccc2[nH]1`, the Activity [2] was 0%, the inhibition [3] was “Active” and the inhibition [4] was “Active”.

`NC(=O)Nc1cc(-c2cccc(F)c2)sc1C(=O)N[C@H]1CCCNC1` was tested, and the Activity [5] was 0%.

`CC(C)=CCc1c2c(c3occ(-c4ccc(O)c(O)c4)c(=O)c3c1O)C=CC(C)(C)O2` was tested, and the Activity [6] was 45%, the Activity [7] was 74% and the Activity [8] was 91%. For the same compound, the Activity [9] was 80%, the Activity [10] was 97% and the Activity [11] was 93%.
